{
  "source": "patent US20090239841A1",
  "about": "“Diaryl Ureas as CB1 Antagonists” (priority 2004, published 2009)",
  "data": [
    {"molecular_target": "T1, hCB1 (Homo sapiens, UniProt P21554)", "T1 construct": "made in house; host or cells: Sf9 insect cells (baculovirus), P2 membranes", "T1 sequence (P21554 whole entry)": "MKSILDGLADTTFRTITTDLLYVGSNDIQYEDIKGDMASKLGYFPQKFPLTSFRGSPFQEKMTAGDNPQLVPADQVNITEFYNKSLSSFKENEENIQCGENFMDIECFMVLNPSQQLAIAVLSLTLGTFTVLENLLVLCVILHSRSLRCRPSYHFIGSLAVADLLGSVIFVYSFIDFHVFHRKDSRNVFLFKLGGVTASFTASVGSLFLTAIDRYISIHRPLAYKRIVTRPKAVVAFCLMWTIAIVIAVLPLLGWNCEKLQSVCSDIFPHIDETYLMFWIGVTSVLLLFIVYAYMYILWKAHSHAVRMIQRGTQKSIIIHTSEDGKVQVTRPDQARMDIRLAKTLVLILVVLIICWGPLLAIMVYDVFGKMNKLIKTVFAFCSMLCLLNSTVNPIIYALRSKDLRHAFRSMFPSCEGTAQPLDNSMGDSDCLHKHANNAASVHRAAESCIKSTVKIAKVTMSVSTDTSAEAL", "test": "Agonist-induced GTP binding (GTPγ35S) assay at CB1, Example 8", "format": "biochemical", "settings": "IC50 at CB1, determined as described in Example 8; read-out: IC50", "in_short": "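Antagonism read as inhibition of 1 nM CP55,940-stimulated GTPγ35S ([…]) binding, compounds at 10^−10 to 10^−5 M. Baculovirus-infected Sf9 membranes bearing hCB1 plus G-protein subunits, 60 min room-temperature incubation with 5 μM GDP. Filtration and scintillation counting; data as percent over basal.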", "units": {"IC50": "nM"}, "values": [
      {"smiles": "COC(=O)c1ccc(NC(=O)Nc2ccc(F)cc2)cc1", "note": "[Compound 472, methyl 4-({[(4-fluorophenyl)amino]carbonyl)amino)benzoate]", "IC50": "< 2000"},
      {"smiles": "CCOC(=O)c1ccc(NC(=O)Nc2cccc(C)c2)cc1", "note": "[Compound 473, ethyl 4-({[(3-methylphenyl)amino]carbonyl}amino)benzoate]", "IC50": "< 2000"},
      {"smiles": "CCOC(=O)c1ccc(NC(=O)Nc2ccc(C)cc2)cc1", "note": "[Compound 474, ethyl 4-({[(4-methylphenyl)amino]carbonyl}amino)benzoate]", "IC50": "< 2000"},
      {"smiles": "CCOC(=O)c1ccc(NC(=O)Nc2cccc(F)c2)cc1", "note": "[Compound 475, ethyl 4-({[(3-fluorophenyl)amino]carbonyl}amino)benzoate]", "IC50": "< 2000"},
      {"smiles": "CCOC(=O)c1ccc(NC(=O)Nc2ccc(F)cc2)cc1", "note": "[Compound 476, ethyl 4-({[(4-fluorophenyl)amino]carbonyl}amino)benzoate]", "IC50": "< 2000"},
      {"smiles": "Cc1cccc(NC(=O)Nc2ccc(C(=O)OC(C)C)cc2)c1", "note": "[Compound 477, isopropyl 4-({[(3-methylphenyl)amino]carbonyl}amino)benzoate]", "IC50": "< 2000"},
      {"smiles": "Cc1ccc(NC(=O)Nc2ccc(C(=O)OC(C)C)cc2)cc1", "note": "[Compound 478, isopropyl 4-({[(4-methylphenyl)amino]carbonyl}amino)benzoate]", "IC50": "< 2000"},
      {"smiles": "CC(C)OC(=O)c1ccc(NC(=O)Nc2cccc(F)c2)cc1", "note": "[Compound 479, isopropyl 4-({[(3-fluorophenyl)amino]carbonyl}amino)benzoate]", "IC50": "< 2000"},
      {"smiles": "CC(C)OC(=O)c1ccc(NC(=O)Nc2ccc(F)cc2)cc1", "note": "[Compound 480, isopropyl 4-({[(4-fluorophenyl)amino]carbonyl}amino)benzoate]", "IC50": "< 2000"},
      {"smiles": "COC(=O)c1ccc(NC(=O)Nc2ccccc2)cc1", "note": "[Compound 481, methyl 4-[(anilinocarbonyl)amino] benzoate]", "IC50": "< 2000"},
      {"smiles": "CCc1cccc(NC(=O)Nc2ccc(CC#N)cc2)c1", "note": "[Compound 482, 1-[4-(cyanomethyl)phenyl]-3-(3-ethylphenyl)urea]", "IC50": "< 2000"},
      {"smiles": "CCc1ccc(NC(=O)Nc2ccc(CC#N)cc2)cc1", "note": "[Compound 483, 1-[4-(cyanomethyl)phenyl]-3-(4-ethylphenyl)urea]", "IC50": "< 2000"},
      {"smiles": "N#CCc1ccc(NC(=O)Nc2cccc(Cl)c2)cc1", "note": "[Compound 484, 1-(3-chlorophenyl)-3-[4-(cyanomethyl)phenyl]urea]", "IC50": "< 2000"},
      {"smiles": "N#CCc1ccc(NC(=O)Nc2ccc(Cl)cc2)cc1", "note": "[Compound 485, 1-(4-chlorophenyl)-3-[4-(cyanomethyl)phenyl]urea]", "IC50": "< 2000"},
      {"smiles": "CCc1ccc(NC(=O)Nc2ccc([N+](=O)[O-])cc2)cc1", "note": "[Compound 487, 1-(4-ethylphenyl)-3-(4-nitrophenyl)urea]", "IC50": "< 2000"},
      {"smiles": "CCc1cccc(NC(=O)Nc2ccc(OCC#N)cc2)c1", "note": "[Compound 488, 1-[4-(cyanomethoxy)phenyl]-3-(3-ethylphenyl)urea]", "IC50": "< 2000"},
      {"smiles": "CCc1ccc(NC(=O)Nc2ccc(OCC#N)cc2)cc1", "note": "[Compound 489, N-[4-(cyanomethoxy)phenyl]-N′-(4-ethylphenyl)urea]", "IC50": "< 2000"},
      {"smiles": "N#CCOc1ccc(NC(=O)Nc2cccc(Cl)c2)cc1", "note": "[Compound 490, 1-(3-chlorophenyl)-3-[4-(cyanomethoxy)phenyl]urea]", "IC50": "< 2000"},
      {"smiles": "CCC(=O)c1ccc(NC(=O)Nc2cccc(CC)c2)cc1", "note": "[Compound 491, 1-(3-ethylphenyl)-3-(4-propionylphenyl)urea]", "IC50": "< 2000"},
      {"smiles": "CCC(=O)c1ccc(NC(=O)Nc2ccc(CC)cc2)cc1", "note": "[Compound 492, 1-(4-ethylphenyl)-3-(4-propionylphenyl)urea]", "IC50": "< 2000"},
      {"smiles": "CCC(=O)c1ccc(NC(=O)Nc2cccc(Cl)c2)cc1", "note": "[Compound 493, 1-(3-chlorophenyl)-3-(4-propionylphenyl)urea]", "IC50": "< 2000"},
      {"smiles": "CCc1cccc(NC(=O)Nc2ccc(C(=O)OC)cc2)c1", "note": "[Compound 494, methyl 4-({[(3-ethylphenyl)amino]carbonyl}amino)benzoate]", "IC50": "< 2000"},
      {"smiles": "CCc1ccc(NC(=O)Nc2ccc(C(=O)OC)cc2)cc1", "note": "[Compound 495, methyl 4-({[(4-ethylphenyl)amino]carbonyl}amino)benzoate]", "IC50": "< 2000"},
      {"smiles": "COC(=O)c1ccc(NC(=O)Nc2ccc(Cl)cc2)cc1", "note": "[Compound 496, methyl 4-({[(4-chlorophenyl)amino]carbonyl}amino)benzoate]", "IC50": "< 2000"},
      {"smiles": "CCOC(=O)c1ccc(NC(=O)Nc2cccc(CC)c2)cc1", "note": "[Compound 497, ethyl 4-({[(3-ethylphenyl)amino]carbonyl}amino)benzoate]", "IC50": "< 2000"},
      {"smiles": "CCOC(=O)c1ccc(NC(=O)Nc2ccc(CC)cc2)cc1", "note": "[Compound 498, ethyl 4-({[(4-ethylphenyl)amino]carbonyl}amino)benzoate]", "IC50": "< 2000"},
      {"smiles": "CCOC(=O)c1ccc(NC(=O)Nc2cccc(Cl)c2)cc1", "note": "[Compound 499, ethyl 4-({[(3-chlorophenyl)amino]carbonyl}amino)benzoate]", "IC50": "< 2000"},
      {"smiles": "CCOC(=O)c1ccc(NC(=O)Nc2ccc(Cl)cc2)cc1", "note": "[Compound 500, ethyl 4-({[(4-chlorophenyl)amino]carbonyl}amino)benzoate]", "IC50": "< 2000"},
      {"smiles": "CCc1ccc(NC(=O)Nc2ccc(S(C)(=O)=O)cc2)cc1", "note": "[Compound 501, 1-(4-ethylphenyl)-3-[4-(methylsulfonyl)phenyl]urea]", "IC50": "< 2000"},
      {"smiles": "CCc1ccc(NC(=O)Nc2ccc(C(=O)OC(C)C)cc2)cc1", "note": "[Compound 502, isopropyl 4-({[(4-ethylphenyl)amino]carbonyl}amino)benzoate]", "IC50": "< 2000"},
      {"smiles": "N#CCc1ccc(NC(=O)Nc2cccc(C#N)c2)cc1", "note": "[Compound 503, 1-[4-(cyanomethyl)phenyl]-3-(3-cyanophenyl)urea]", "IC50": "< 2000"},
      {"smiles": "CC(=O)c1cccc(NC(=O)Nc2ccc(CC#N)cc2)c1", "note": "[Compound 504, 1-(3-acetylphenyl)-3-[4-(cyanomethyl)phenyl]urea]", "IC50": "< 2000"},
      {"smiles": "CC(=O)c1ccc(NC(=O)Nc2ccc(CC#N)cc2)cc1", "note": "[Compound 505, 1-(4-acetylphenyl)-3-[4-(cyanomethyl)phenyl]urea]", "IC50": "< 2000"},
      {"smiles": "N#CCOc1ccc(NC(=O)Nc2ccc(C#N)cc2)cc1", "note": "[Compound 506, 1-[4-(cyanomethoxy)phenyl]-3-(4-cyanophenyl)urea]", "IC50": "< 2000"},
      {"smiles": "N#CCOc1ccc(NC(=O)Nc2cccc(C#N)c2)cc1", "note": "[Compound 507, 1-[4-(cyanomethoxy)phenyl]-3-(3-cyanophenyl)urea]", "IC50": "< 2000"},
      {"smiles": "CC(=O)c1ccc(NC(=O)Nc2ccc(OCC#N)cc2)cc1", "note": "[Compound 508, 1-(4-acetylphenyl)-3-[4-(cyanomethoxy)phenyl]urea]", "IC50": "< 2000"},
      {"smiles": "CCC(=O)c1ccc(NC(=O)Nc2cccc(C#N)c2)cc1", "note": "[Compound 509, 1-(3-cyanophenyl)-3-(4-propionylphenyl)urea]", "IC50": "< 2000"},
      {"smiles": "COC(=O)c1ccc(NC(=O)Nc2ccc(C(C)=O)cc2)cc1", "note": "[Compound 510, methyl 4-({[(4-acetylphenyl)amino]carbonyl}amino)benzoate]", "IC50": "< 2000"},
      {"smiles": "CCOC(=O)c1ccc(NC(=O)Nc2cccc(C#N)c2)cc1", "note": "[Compound 511, ethyl 4-({[(3-cyanophenyl)amino]carbonyl}amino)benzoate]", "IC50": "< 2000"},
      {"smiles": "CCOC(=O)c1ccc(NC(=O)Nc2cccc(C(C)=O)c2)cc1", "note": "[Compound 512, ethyl 4-({[(3-acetylphenyl)amino]carbonyl}amino)benzoate]", "IC50": "< 2000"},
      {"smiles": "CC(=O)c1cccc(NC(=O)Nc2ccc(C(=O)OC(C)C)cc2)c1", "note": "[Compound 513, isopropyl 4-({[(3-acetylphenyl)amino]carbonyl}amino)benzoate]", "IC50": "< 2000"},
      {"smiles": "CC(=O)c1ccc(NC(=O)Nc2ccc(C(=O)OC(C)C)cc2)cc1", "note": "[Compound 514, isopropyl 4-({[(4-acetylphenyl)amino]carbonyl}amino)benzoate]", "IC50": "< 2000"},
      {"smiles": "CCc1ccc(NC(=O)Nc2ccccc2[N+](=O)[O-])cc1", "note": "[Compound 515, 1-(4-ethylphenyl)-3-(2-nitrophenyl)urea]", "IC50": "< 2000"},
      {"smiles": "CCc1ccc(NC(=O)Nc2ccc(OC(F)(F)F)cc2)cc1", "note": "[Compound 517, 1-(4-ethylphenyl)-3-[4-(trifluoromethoxy)phenyl]urea]", "IC50": "< 2000"},
      {"smiles": "CC(C)c1ccc(NC(=O)Nc2ccc(OC(F)F)cc2)cc1", "note": "[Compound 518, 1-[4-(difluoromethoxy)phenyl]-3-(4-isopropylphenyl)urea]", "IC50": "< 2000"},
      {"smiles": "CCCc1ccc(NC(=O)Nc2ccc(OC(F)(F)F)cc2)cc1", "note": "[Compound 519, 1-(4-propylphenyl)-3-[4-(trifluoromethoxy)phenyl]urea]", "IC50": "< 2000"},
      {"smiles": "O=C(Nc1ccc(OC(F)F)cc1)Nc1cccc(Br)c1", "note": "[Compound 520, 1-(3-bromophenyl)-3-[4-(difluoromethoxy)phenyl]urea]", "IC50": "< 2000"},
      {"smiles": "COc1cccc(NC(=O)Nc2ccc(C(C)C)cc2)c1", "note": "[Compound 521, 1-(4-isopropylphenyl)-3-(3-methoxyphenyl)urea]", "IC50": "< 2000"},
      {"smiles": "COc1ccc(NC(=O)Nc2ccc(C(C)C)cc2)cc1", "note": "[Compound 522, 1-(4-isopropylphenyl)-3-(4-methoxyphenyl)urea]", "IC50": "< 2000"},
      {"smiles": "CCCc1ccc(NC(=O)Nc2cccc(OC)c2)cc1", "note": "[Compound 524, 1-(3-methoxyphenyl)-3-(4-propylphenyl)urea]", "IC50": "< 2000"},
      {"smiles": "CCCc1ccc(NC(=O)Nc2ccc(OC)cc2)cc1", "note": "[Compound 525, 1-(4-methoxyphenyl)-3-(4-propylphenyl)urea]", "IC50": "< 2000"},
      {"smiles": "CCCc1ccc(NC(=O)Nc2ccc(OCC)cc2)cc1", "note": "[Compound 526, 1-(4-ethoxyphenyl)-3-(4-propylphenyl)urea]", "IC50": "< 2000"},
      {"smiles": "CCc1ccc(NC(=O)Nc2cccc([N+](=O)[O-])c2)cc1", "note": "[Compound 527, 1-(4-ethylphenyl)-3-(3-nitrophenyl)urea]", "IC50": "< 2000"},
      {"smiles": "CC(C)c1ccc(NC(=O)Nc2ccc([N+](=O)[O-])cc2)cc1", "note": "[Compound 528, 1-(4-isopropylphenyl)-3-(4-nitrophenyl)urea]", "IC50": "< 2000"}
    ]}
  ]
}
